Measured values: patent US20240252488A1 (KOREA RESEARCH INSTITUTE OF CHEMICAL TECHNOLOGY, priority 2020, published 2024)

Legend:
FADD−/− Jurkat cells = assay: Necroptosis inhibition assay, TNF-α-induced necroptosis (CellTiter-Glo 2.0); format: cell-based, human; details: TNF-α 15 ng/mL, FADD−/− Jurkat cells; for Necroptosis inhibition assay (Rescue %) 1 μM: compound 1 μM; for Necroptosis inhibition assay (Rescue %) 10 μM: compound 10 μM
How it was run: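 Cmpd 0.1/1/10 μM final, 30 min RT preincubation; TNF-α 15 ng/mL final; 20–24 h, 37° C, 5% CO2. Readout: ATP luminescence (reagent 1:3 in PBS), 0.5 s/well. Cytotoxicity and % necroptosis inhibition calculated from signal.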

MLKL [1] = molecular target: T1, MLKL (Homo sapiens, UniProt Q8NB16); assay: MLKL degradation assay in HepG2 cell line (western blot); format: cell-based; set-up: endogenous in cells; host or cells: HepG2 or HaCaT; details: cell line not given; for Degradation assay (Degradation %) 1 μM: compound 1 μM; for Degradation assay (Degradation %) 10 μM: compound 10 μM
T1 sequence (Q8NB16 1-471): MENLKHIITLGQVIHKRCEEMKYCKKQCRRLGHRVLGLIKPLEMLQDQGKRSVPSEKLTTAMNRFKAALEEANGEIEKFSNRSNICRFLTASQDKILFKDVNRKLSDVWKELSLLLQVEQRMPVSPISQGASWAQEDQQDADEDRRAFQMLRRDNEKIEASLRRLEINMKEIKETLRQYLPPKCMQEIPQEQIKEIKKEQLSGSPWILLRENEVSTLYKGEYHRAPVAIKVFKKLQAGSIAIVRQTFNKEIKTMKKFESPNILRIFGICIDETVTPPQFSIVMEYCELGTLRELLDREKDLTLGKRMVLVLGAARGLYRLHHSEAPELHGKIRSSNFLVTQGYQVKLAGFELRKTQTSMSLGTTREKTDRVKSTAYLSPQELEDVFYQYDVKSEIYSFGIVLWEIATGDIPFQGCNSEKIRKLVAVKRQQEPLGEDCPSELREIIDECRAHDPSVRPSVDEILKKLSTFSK
How it was run: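 HepG2, cpd final 1 or 10 μM, 20-24 h, 37 °C/5% CO2; RIPA lysis, BCA-normalized, 10-15 μg/lane SDS-PAGE, western blot, ECL read-out.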

MLKL [2] = molecular target: T1, MLKL; assay: Measurement of binding affinity with MLKL receptor (competitive binding assay, Kd); set-up: made in house; host or cells: HEK 293 cell line (T7 phage in E. coli BL21-derived host is also described)
How it was run: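 qPCR of MLKL eluted from liganded beads served as the read-out, from which Kd was derived. The protein was made in HEK 293 cells with a DNA tag, and test compounds competed with the bead-bound ligand at 0.9% final DMSO.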

| Structure (SMILES) | Degradation assay (Degradation %) 1 μM (MLKL [1]) [%] | Degradation assay (Degradation %) 10 μM (MLKL [1]) [%] | Kd (MLKL [2]) [nM] | Necroptosis inhibition assay (Rescue %) 1 μM (FADD−/− Jurkat cells) [%] | Necroptosis inhibition assay (Rescue %) 10 μM (FADD−/− Jurkat cells) [%] |
| --- | --- | --- | --- | --- | --- |
| Nc1ncc(-c2cnn(C3CCN(C4CC5(CCN(CC6CCN(c7ccc8c(c7)C(=O)N(C7CCC(=O)NC7=O)C8=O)CC6)CC5)C4)CC3)c2)nc1C(=O)O[C@@H](C(=O)Nc1ccc(F)cc1)c1ccccc1 (stereo partly drawn) [TDH-472, (R)-2-((4-fluorophenyl)amino)-2-oxo-1-phenylethyl 3-amino-6-(1-(1-(7-((1-(2-(2,6-dioxopiperidin-3-yl)-1,3-dioxoisoindolin-5-yl)piperidin-4-yl)methyl)-7-azaspiro[3.5]nonan-2-yl)piperidin-4-yl)-1H-pyrazol-4-yl)pyrazine-2-carboxylate] | 50.63 | 69.94 | 1.6 | 27.45 | 1.07 |
| Nc1ncc(-c2cnn(C3CCN(CC4CCN(CC5CCN(c6ccc7c(c6)C(=O)N(C6CCC(=O)NC6=O)C7=O)CC5)CC4)CC3)c2)nc1C(=O)O[C@@H](C(=O)Nc1ccc(F)cc1)c1ccccc1 (stereo partly drawn) [TDH-473, (R)-2-((4-fluorophenyl)amino)-2-oxo-1-phenylethyl 3-amino-6-(1-(1-((1-((1-(2-(2,6-dioxopiperidin-3-yl)-1,3-dioxoisoindolin-5-yl)piperidin-4-yl)methyl)piperidin-4-yl)methyl)piperidin-4-yl)-1H-pyrazol-4-yl)pyrazine-2-carboxylate] | 63.51 | 73.71 | 1.7 | 28.37 | −13.59 |
| Nc1ncc(-c2cnn(C3CCN(CCCN4CCN(CC5CCN(c6ccc7c(c6)C(=O)N(C6CCC(=O)NC6=O)C7=O)CC5)CC4)CC3)c2)nc1C(=O)O[C@@H](C(=O)Nc1ccc(F)cc1)c1ccccc1 (stereo partly drawn) [TDH-474, (R)-2-((4-fluorophenyl)amino)-2-oxo-1-phenylethyl 3-amino-6-(1-(1-(3-(4-((1-(2-(2,6-dioxopiperidin-3-yl)-1,3-dioxoisoindolin-5-yl)piperidin-4-yl)methyl)piperazin-1-yl)propyl)piperidin-4-yl)-1H-pyrazol-4-yl)pyrazine-2-carboxylate] | 54.33 | 68.31 | 0.95 | 25.61 | 5.98 |
| Nc1ncc(-c2cnn(C3CCN(CCCC4CCN(c5ccc6c(c5)C(=O)N(C5CCC(=O)NC5=O)C6=O)CC4)CC3)c2)nc1C(=O)O[C@@H](C(=O)Nc1ccc(F)cc1)c1ccccc1 (stereo partly drawn) [TDH-481, (R)-2-((4-fluorophenyl)amino)-2-oxo-1-phenylethyl 3-amino-6-(1-(1-(3-(1-(2-(2,6-dioxopiperidin-3-yl)-1,3-dioxoisoindolin-5-yl)piperidin-4-yl)propyl)piperidin-4-yl)-1H-pyrazol-4-yl)pyrazine-2-carboxylate] | 74.5 | 63.36 | 8.8 | 17.64 | 9.86 |
| Nc1ncc(-c2cnn(C3CCN(CCCC4CCN(C(=O)COc5ccc6c(c5)C(=O)N(C5CCC(=O)NC5=O)C6=O)CC4)CC3)c2)nc1C(=O)O[C@@H](C(=O)Nc1ccc(F)cc1)c1ccccc1 (stereo partly drawn) [TDH-482, (R)-2-((4-fluorophenyl)amino)-2-oxo-1-phenylethyl 3-amino-6-(1-(1-(3-(1-(2-((2-(2,6-dioxopiperidin-3-yl)-1,3-dioxoisoindolin-5-yl)oxy)acetyl)piperidin-4-yl)propyl)piperidin-4-yl)-1H-pyrazol-4-yl)pyrazine-2-carboxylate] | 91.19 | 88.98 | 1.2 | 78.94 | 42.16 |

Stronger by Kd (MLKL [2]), values ahead:

| Degradation assay (Degradation %) 1 μM (MLKL [1]) [%] | Degradation assay (Degradation %) 10 μM (MLKL [1]) [%] | Kd (MLKL [2]) [nM] | Structure (SMILES) | Necroptosis inhibition assay (Rescue %) 1 μM (FADD−/− Jurkat cells) [%] | Necroptosis inhibition assay (Rescue %) 10 μM (FADD−/− Jurkat cells) [%] |
| --- | --- | --- | --- | --- | --- |
| 93.95 | 86.45 | 0.5 | Nc1ncc(-c2cnn(C3CCN(CCCN4CC5CN(C(=O)CNc6ccc7c(c6)C(=O)N(C6CCC(=O)NC6=O)C7=O)CC5C4)CC3)c2)nc1C(=O)O[C@@H](C(=O)Nc1ccc(F)cc1)c1ccccc1 (stereo partly drawn) [TDH-467, (R)-2-((4-fluorophenyl)amino)-2-oxo-1-phenylethyl 3-amino-6-(1-(1-(3-(5-((2-(2,6-dioxopiperidin-3-yl)-1,3-dioxoisoindolin-5-yl)glycyl)hexahydropyrrolo[3,4-c]pyrrol-2(1H)-yl)propyl)piperidin-4-yl)-1H-pyrazol-4-yl)pyrazine-2-carboxylate] | 54.19 | −9.09 |
| 81.77 | 60.49 | 0.34 | Nc1ncc(-c2cnn(C3CCN(CCC4CCN(C(=O)CCc5ccc6c(c5)CN(C5CCC(=O)NC5=O)C6=O)CC4)CC3)c2)nc1C(=O)O[C@@H](C(=O)Nc1ccc(F)cc1)c1ccccc1 (stereo partly drawn) [TDH-475, (R)-2-((4-fluorophenyl)amino)-2-oxo-1-phenylethyl 3-amino-6-(1-(1-(2-(1-(3-(2-(2,6-dioxopiperidin-3-yl)-1-oxoisoindolin-5-yl)propanoyl)piperidin-4-yl)ethyl)piperidin-4-yl)-1H-pyrazol-4-yl)pyrazine-2-carboxylate] | 31.75 | 7.21 |
| 87.94 | 73.34 | 0.32 | Nc1ncc(-c2cnn(C3CCN(CCCN4CCN(C(=O)CCc5ccc6c(c5)CN(C5CCC(=O)NC5=O)C6=O)CC4)CC3)c2)nc1C(=O)O[C@@H](C(=O)Nc1ccc(F)cc1)c1ccccc1 (stereo partly drawn) [TDH-476, (R)-2-((4-fluorophenyl)amino)-2-oxo-1-phenylethyl 3-amino-6-(1-(1-(3-(4-(3-(2-(2,6-dioxopiperidin-3-yl)-1-oxoisoindolin-5-yl)propanoyl)piperazin-1-yl)propyl)piperidin-4-yl)-1H-pyrazol-4-yl)pyrazine-2-carboxylate] | 47.52 | 25.23 |
| 92.48 | 90.67 | 0.26 | COc1ccc(C(=O)N2CCC(CN3CCC(CN4CCC(n5cc(-c6cnc(N)c(C(=O)O[C@@H](C(=O)Nc7ccc(F)cc7)c7ccccc7)n6)cn5)CC4)CC3)CC2)cc1N1CCC(=O)NC1=O [TDH-477, (R)-2-((4-fluorophenyl)amino)-2-oxo-1-phenylethyl 3-amino-6-(1-(1-((1-((1-(3-(2,4-dioxotetrahydropyrimidin-1(2H)-yl)-4-methoxybenzoyl)piperidin-4-yl)methyl)piperidin-4-yl)methyl)piperidin-4-yl)-1H-pyrazol-4-yl)pyrazine-2-carboxylate] | 62.38 | 21.83 |
| 89.29 | 86.88 | 0.26 | COc1ccc(C(=O)N2CCC(CN3CCN(CCCN4CCC(n5cc(-c6cnc(N)c(C(=O)O[C@@H](C(=O)Nc7ccc(F)cc7)c7ccccc7)n6)cn5)CC4)CC3)CC2)cc1N1CCC(=O)NC1=O [TDH-478, (R)-2-((4-fluorophenyl)amino)-2-oxo-1-phenylethyl 3-amino-6-(1-(1-(3-(4-((1-(3-(2,4-dioxotetrahydropyrimidin-1(2H)-yl)-4-methoxybenzoyl)piperidin-4-yl)methyl)piperazin-1-yl)propyl)piperidin-4-yl)-1H-pyrazol-4-yl)pyrazine-2-carboxylate] | 92.11 | 43.19 |
| 46.42 | 73 | 0.48 | Nc1ncc(-c2cnn(C3CCN(CCCN4CC5CN(C(=O)CCc6ccc7c(c6)C(=O)N(C6CCC(=O)NC6=O)C7=O)CC5C4)CC3)c2)nc1C(=O)O[C@@H](C(=O)Nc1ccc(F)cc1)c1ccccc1 (stereo partly drawn) [TDH-480, (R)-2-((4-fluorophenyl)amino)-2-oxo-1-phenylethyl 3-amino-6-(1-(1-(3-(5-(3-(2-(2,6-dioxopiperidin-3-yl)-1,3-dioxoisoindolin-5-yl)propanoyl)hexahydropyrrolo[3,4-c]pyrrol-2(1H)-yl)propyl)piperidin-4-yl)-1H-pyrazol-4-yl)pyrazine-2-carboxylate] | 35.76 | 39.78 |
